For 91 compounds, vessel count % control results are on record in PubChem BioAssay AID732 (Emory University Molecular Libraries Screening Center, 2007).

Calls of active or inactive are those of the source. No rule for the calls is given here.

The subject of the assay is in vivo angiogenesis, blood vessel count. Briefly: angiogenesis inhibition in living animals, in vivo study, HTS (AID 732).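 Also: zebrafish embryos dosed at one day post fertilization; 0% = reference inhibitor and 100% = plate mean.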 The conditions noted are these: stronger effect = lower value;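 tested at 30 µM in the well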.
With `C[C@H]1CC2C3CCC4=CC(=O)C=C[C@]4(C)[C@@]3(Cl)[C@@H](O)C[C@]2(C)[C@@]1(O)C(=O)CO` (stereo partly specified), the vessel count % control was 120% (inactive).

Regarding `O=c1ccc2ccc(O)c(O)c2o1`, the vessel count % control is 121% (inactive).

With `CC(C)NCC(O)COc1cccc2[nH]ccc12` (stereo unspecified), the vessel count % control was 90.8% (inactive).

Take `C[N+]1(C)CCc2cc3c(cc2[C@H]1[C@@H]1OC(=O)c2c1ccc1c2OCO1)OCO3`: the vessel count % control was 85.4% (inactive).

Consider `CCCCCCCCCCCCCCCC(=O)NCCO`, for which the vessel count % control is 96.1% (inactive).

With `Nn1nnc2ccccc21`, the vessel count % control was 109% (inactive).

As to `NC(N)=N/N=C/c1c(Cl)cccc1Cl`, the vessel count % control was 112% (inactive).

For the compound `O=c1[nH]c(=O)n([C@H]2C[C@H](O)[C@@H](CO)O2)cc1Br`, the vessel count % control was 105% (inactive).

On to `N=C(N)SCCc1cccc(CCSC(=N)N)c1`, for which the vessel count % control was 106% (inactive).

As for `NNCCc1ccccc1`, the vessel count % control was 104% (inactive).

On to `O=C(O)C1C2CCC(O2)C1C(=O)O` (stereo unspecified), for which the vessel count % control is 98.3% (inactive).

Regarding `CC[C@@]1(O)C(=O)OCc2c1cc1n(c2=O)Cc2cc3ccccc3nc2-1`, the vessel count % control was 0% (inactive).

Take `NC1(C(=O)O)CC1`: the vessel count % control was 127% (inactive).

`CCn1cc(C(=O)O)c(=O)c2ccc(C)nc21`: the vessel count % control is 135% (inactive).

For the compound `CCCCC[C@H](CC(=O)NO)C(=O)N[C@H](C(=O)N1CCC[C@H]1CO)C(C)C`, the vessel count % control is 103% (inactive).

As to `c1ccc([C@H]2CN3CCSC3=N2)cc1`, the vessel count % control was 98.4% (inactive).

Regarding `NCCCC(N)(C(=O)O)C(F)F` (stereo unspecified), the vessel count % control was 80.5% (inactive).

In the case of `NO`, the vessel count % control was 93.7% (inactive).

Consider `Clc1cnc(Oc2ccc(Oc3ncc(Cl)cc3Cl)cc2)c(Cl)c1`, for which the vessel count % control is 96.7% (inactive).

As to `C=C(C)C1CC=C(C(=O)O)CC1` (stereo unspecified), the vessel count % control was 109% (inactive).

Take `COc1ccc(Cl)cc1C(=O)NCCc1ccc(S(=O)(=O)NC(=O)NC2CCCCC2)cc1`: the vessel count % control was 94.8% (inactive).

Consider `C#CCN(C)[C@@H](C)Cc1ccccc1`, for which the vessel count % control was 74.7% (inactive).

With `N[C@@H](CCl)C(=O)O`, the vessel count % control is 101% (inactive).

In the case of `Oc1ccc(O)cc1`, the vessel count % control is 128% (inactive).

In the case of `C[C@@H](N)Cc1cnc[nH]1`, the vessel count % control is 97.8% (inactive).

In the case of `C1CCc2nnnn2CC1`, the vessel count % control is 79% (inactive).

Turning to `CC(=O)[C@H]1CC[C@H]2[C@@H]3CC[C@H]4C[C@H](O)CC[C@]4(C)[C@H]3C(=O)C[C@]12C`, the vessel count % control is 111% (inactive).

Regarding `CC#C[C@]1(O)CC[C@H]2[C@@H]3CCC4=CC(=O)CCC4=C3[C@@H](c3ccc(N(C)C)cc3)C[C@@]21C`, the vessel count % control was 106% (inactive).

Turning to `COc1cc2nc(N3CCN(C(=O)C4COc5ccccc5O4)CC3)nc(N)c2cc1OC` (stereo unspecified), the vessel count % control is 103% (inactive).

On to `Nc1nc2c(nc(Br)n2C2OC3COP(=O)(O)O[C@@H]3C2O)c(=O)[nH]1` (stereo partly specified), for which the vessel count % control was 110% (inactive).

For the compound `C[C@@](Cc1ccc(O)c(O)c1)(NN)C(=O)O`, the vessel count % control is 94.6% (inactive).

Take `O=C(O)CCCCCC[C@H]1C(=O)NC(=O)N1CC[C@@H](O)C1CCCCC1`: the vessel count % control was 93.1% (inactive).

In the case of `CN1CCN(CCCN2c3ccccc3Sc3ccc(C(F)(F)F)cc32)CC1`, the vessel count % control was 105% (inactive).

`NCCSSCCN`: the vessel count % control is 118% (inactive).

For the compound `CC(C)Oc1cccnc1N(C)C1CCN(Cc2ccccc2)CC1`, the vessel count % control is 98.1% (inactive).

As for `CCN1C[C@]2(C)CC[C@H](O)[C@@]34C5C[C@@H]6[C@@H](OC)C[C@@](O)(C5[C@H]6O)[C@@H](CC23)C14` (stereo partly specified), the vessel count % control is 76.7% (inactive).

With `CCN1CCCC1CNC(=O)c1cc(S(N)(=O)=O)ccc1OC` (stereo unspecified), the vessel count % control was 112% (inactive).

For the compound `O=C(c1ccc(OCCN2CCCCC2)cc1)c1c(-c2ccc(O)cc2)sc2cc(O)ccc12`, the vessel count % control was 87.4% (inactive).

Take `O=C1CCCN1CC#CCN1CCCC1`: the vessel count % control is 99.6% (inactive).

For `COc1cc2c(cc1OC)[C@@H](c1ccccc1)CN(C)CC2`, the vessel count % control was 91.5% (inactive).

Take `O=C(O)Cc1cnc[nH]1`: the vessel count % control is 110% (inactive).

For `C[C@](N)(Cc1ccc(O)c(O)c1)C(=O)O`, the vessel count % control is 97.4% (inactive).

Take `CC(C)C[C@H](NC(=O)[C@H](O)[C@H](N)Cc1ccccc1)C(=O)O`: the vessel count % control was 104% (inactive).

On to `CC(CN1c2ccccc2Sc2ccccc21)N(C)C` (stereo unspecified), for which the vessel count % control is 97.7% (inactive).

Consider `Cc1cc(N)c2ccccc2[n+]1CCCCCCCCCC[n+]1c(C)cc(N)c2ccccc21`, for which the vessel count % control was 100% (inactive).

Consider `CCc1cccc(N(C)C(N)=Nc2cccc3ccccc23)c1`, for which the vessel count % control was 105% (inactive).

For the compound `NC(N)=NCc1cccc(I)c1`, the vessel count % control is 98.4% (inactive).

For `Cn1c(=O)c2[nH]c(-c3ccccc3)nc2n(C)c1=O`, the vessel count % control was 117% (inactive).

Take `NC/C=C\C(=O)O`: the vessel count % control is 111% (inactive).

Take `CSc1ccc2c(c1)C(N1CCN(C)CC1)Cc1ccccc1S2` (stereo unspecified): the vessel count % control was 60.6% (inactive).

Turning to `NCC(CC(=O)O)c1ccc(Cl)cc1` (stereo unspecified), the vessel count % control was 100% (inactive).

As to `O=C(c1ccc2c(c1)OCCO2)N1CCCCC1`, the vessel count % control was 106% (inactive).

Turning to `CCCCC1C(=O)N(c2ccccc2)N(c2ccccc2)C1=O`, the vessel count % control was 93.9% (inactive).

As for `Nc1nc(N)c2nc(-c3ccccc3)c(N)nc2n1`, the vessel count % control was 109% (inactive).

On to `NC1CCc2cc(O)c(O)cc2C1` (stereo unspecified), for which the vessel count % control is 94.8% (inactive).

For `C[C@]12CC[C@@H]3c4ccc(O)cc4CC[C@H]3[C@@H]1CC[C@@H]2O`, the vessel count % control was 104% (inactive).

Take `C=C(C)[C@H]1Cc2c(ccc3c2O[C@@H]2COc4cc(OC)c(OC)cc4[C@@H]2C3=O)O1`: the vessel count % control was 0% (inactive).

As to `COC(=O)C1=C(C)NC(C)=C(C(=O)OC)C1c1ccccc1[N+](=O)[O-]`, the vessel count % control is 112% (inactive).

Regarding `O=C(O)CP(=O)(O)O`, the vessel count % control was 79.8% (inactive).

Consider `N#CC(C#N)=C(N)/C(C#N)=C/c1ccc(O)cc1`, for which the vessel count % control is 93% (inactive).

With `CCC(NC(C)C)C(O)c1ccc(O)c(O)c1` (stereo unspecified), the vessel count % control is 85.9% (inactive).

On to `NS(=O)(=O)c1cc2c(cc1Cl)NCNS2(=O)=O`, for which the vessel count % control is 103% (inactive).

In the case of `Cc1ccccc1CNc1ncnc2c1ncn2C1OC(CO)C(O)C1O` (stereo unspecified), the vessel count % control is 93.1% (inactive).

For `CCCCNc1ccc(C(=O)OCCN(C)C)cc1`, the vessel count % control is 100% (inactive).

Turning to `O=C1CCC(c2ccc(-n3ccnc3)cc2)=NN1`, the vessel count % control was 86% (inactive).

In the case of `O=c1ccc2c(OCCCCc3ccccc3)c3ccoc3cc2o1`, the vessel count % control is 76.3% (inactive).

In the case of `S=C(NC1CCCCC1)N1CCC(c2cnc[nH]2)CC1`, the vessel count % control is 129% (inactive).

On to `COc1cc(/C=C(\C#N)C(=O)c2ccc(O)c(O)c2)cc(I)c1O`, for which the vessel count % control was 94.3% (inactive).

For `O=C1C(c2c(O)[nH]c3ccc([N+](=O)[O-])cc23)=Nc2ccc(Br)cc21`, the vessel count % control was 101% (inactive).

With `Cc1cc(N)c2ccccc2[n+]1CCCCCCCCCCCCCC[n+]1c(C)cc(N)c2ccccc21`, the vessel count % control was 79.9% (inactive).

`C#CCN1C(C)=C(C(=O)OC)C(c2cccc([N+](=O)[O-])c2)C(C(=O)OCC)=C1C` (stereo unspecified): the vessel count % control is 132% (inactive).

As to `Cc1ccc(N(CC2=NCCN2)c2cccc(O)c2)cc1`, the vessel count % control is 77.7% (inactive).

`CNC(=O)c1cc2c(cn1)[nH]c1ccccc12`: the vessel count % control is 101% (inactive).

Consider `NC(=NCCC[C@H](N)C(=O)O)NO`, for which the vessel count % control was 99% (inactive).

For `CC(=O)NNC(=O)N1Cc2ccccc2Oc2ccc(Cl)cc21`, the vessel count % control is 0% (inactive).

Regarding `O=C(OCCN1CCOCC1)C1(c2ccccc2)CCCCC1`, the vessel count % control is 91.6% (inactive).

In the case of `COC(=O)c1c(C)[nH]c(C)c1C(=O)c1ccccc1Cc1ccccc1`, the vessel count % control was 102% (inactive).

In the case of `COc1ccc2c(c1OC)C(=O)O[C@@H]2[C@H]1c2c(cc3c(c2OC)OCO3)CCN1C`, the vessel count % control was 127% (inactive).

In the case of `O=C(O)C1=CCCN(CCON=C(c2ccccc2)c2ccccc2)C1`, the vessel count % control is 104% (inactive).

Consider `O=C(O)c1cccnc1Nc1cccc(C(F)(F)F)c1`, for which the vessel count % control was 102% (inactive).

As to `O=C(O)CN(CCOCCOCCN(CC(=O)O)CC(=O)O)CC(=O)O`, the vessel count % control is 103% (inactive).

Turning to `COC(=O)[C@H](NC(=O)c1cc(-c2ccccc2)nc2ccccc12)c1ccccc1`, the vessel count % control was 97.2% (inactive).

`CCCC(CCC)C(=O)O`: the vessel count % control is 89.7% (inactive).

`CCCCCCCCCCCCCCCCCCNC(=O)OCC(COP(=O)([O-])OCC[n+]1ccsc1)OC` (stereo unspecified): the vessel count % control was 92% (inactive).

Regarding `CC(N)=O`, the vessel count % control is 108% (inactive).

For `CCCN1CCC[C@@H](c2cccc(O)c2)C1`, the vessel count % control was 91.2% (inactive).

`CCOC(=O)Nc1ccc(NCc2ccc(F)cc2)nc1N`: the vessel count % control is 83.6% (inactive).

Regarding `O=C1NC(O)=NC1(c1ccccc1)c1ccccc1`, the vessel count % control was 106% (inactive).

Consider `CNC(=O)[C@H]1O[C@@H](n2cnc3c(NCc4ccc(N)cc4)ncnc32)C(O)[C@H]1O` (stereo partly specified), for which the vessel count % control was 134% (inactive).

On to `CN(C)C(=O)C(CCN1CCC(O)(c2ccc(Cl)cc2)CC1)(c1ccccc1)c1ccccc1`, for which the vessel count % control is 126% (inactive).

Turning to `NC(N)=NC(=O)Cc1c(Cl)cccc1Cl`, the vessel count % control is 119% (inactive).
